In ChEMBL document CHEMBL3393036, “Tetra-substituted pyridinylimidazoles as dual inhibitors of p38α mitogen-activated protein kinase and c-Jun N-terminal kinase 3 for potential treatment of neurodegenerative diseases” (J Med Chem, 2015):
pIC50: −log10 of the molar value.

Key:
[1] = biological target: T1, Interleukin-1 receptor-associated kinase 4 (Homo sapiens) (UniProt Q9NWZ3); assay: Inhibition of IRAK4 (unknown origin) at 5.5 uM by Caliper Mobility Shift Assay
T1 sequence (whole entry): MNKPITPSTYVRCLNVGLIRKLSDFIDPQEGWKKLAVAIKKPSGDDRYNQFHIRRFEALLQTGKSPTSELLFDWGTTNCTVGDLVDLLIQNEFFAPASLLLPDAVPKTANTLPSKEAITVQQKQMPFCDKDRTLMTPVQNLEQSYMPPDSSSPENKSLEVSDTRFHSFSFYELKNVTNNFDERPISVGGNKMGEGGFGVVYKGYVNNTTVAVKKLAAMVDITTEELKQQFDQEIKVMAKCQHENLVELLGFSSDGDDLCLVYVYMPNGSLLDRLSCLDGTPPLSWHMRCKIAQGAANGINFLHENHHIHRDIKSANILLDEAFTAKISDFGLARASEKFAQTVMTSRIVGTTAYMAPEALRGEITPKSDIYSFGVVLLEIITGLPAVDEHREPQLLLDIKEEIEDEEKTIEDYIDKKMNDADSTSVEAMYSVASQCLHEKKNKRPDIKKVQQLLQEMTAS

[2] = biological target: Fibroblast growth factor receptor 2 (Homo sapiens) (UniProt P21802); assay: Inhibition of FGFR2 (unknown origin) at 5.5 uM by Caliper Mobility Shift Assay
[3] = biological target: Fibroblast growth factor receptor 1 (Homo sapiens) (UniProt P11362); assay: Inhibition of FGFR1 (unknown origin) at 5.5 uM by Caliper Mobility Shift Assay
[4] = test system: Fibroblast growth factor receptor 3 (Homo sapiens), P22607 [K650E]; assay: Inhibition of FGFR3 K650E (unknown origin) at 5.5 uM by Caliper Mobility Shift Assay
[5] = biological target: Serine/threonine-protein kinase PAK 2 (Homo sapiens) (UniProt Q13177); assay: Inhibition of PAK2 (unknown origin) at 5.5 uM by Caliper Mobility Shift Assay
[6] = biological target: Protein kinase C alpha type (Homo sapiens) (UniProt P17252); assay: Inhibition of PRKCA (unknown origin) at 5.5 uM by Caliper Mobility Shift Assay
[7] = organism: Homo sapiens; assay: Selectivity ratio of IC50 for JNK3 (unknown origin) to IC50 for p38alpha (unknown origin)
[8] = biological target: Tyrosine-protein kinase JAK1 (Homo sapiens) (UniProt P23458); assay: Inhibition of JAK1 (unknown origin) at 5.5 uM by Caliper Mobility Shift Assay
[9] = biological target: Cyclin-dependent kinase 2 (Homo sapiens) (UniProt P24941); assay: Inhibition of CDK2 (unknown origin) at 5.5 uM by Caliper Mobility Shift Assay
[10] = biological target: Tyrosine-protein kinase Lck (Homo sapiens) (UniProt P06239); assay: Inhibition of LCK (unknown origin) at 5.5 uM by Caliper Mobility Shift Assay
[11] = biological target: Mitogen-activated protein kinase 8 (Homo sapiens) (UniProt P45983); assay: Inhibition of JNK1 (unknown origin) at 5.5 uM by Caliper Mobility Shift Assay
[12] = biological target: Mitogen-activated protein kinase 9 (Homo sapiens) (UniProt P45984); assay: Inhibition of JNK2 (unknown origin) at 5.5 uM by Caliper Mobility Shift Assay
[13] = biological target: Mitogen-activated protein kinase kinase kinase kinase 4 (Homo sapiens) (UniProt O95819); assay: Inhibition of MAP4K4 (unknown origin) at 5.5 uM by Caliper Mobility Shift Assay
[14] = biological target: Epidermal growth factor receptor (Homo sapiens) (UniProt P00533); assay: Inhibition of EGFR (HER1) (unknown origin) at 5.5 uM by Caliper Mobility Shift Assay
[15] = biological target: ALK tyrosine kinase receptor (Homo sapiens) (UniProt Q9UM73); assay: Inhibition of ALK (unknown origin) at 5.5 uM by Caliper Mobility Shift Assay
[16] = biological target: Mitogen-activated protein kinase 10 (Homo sapiens, UniProt P53779); assay: Inhibition of JNK3 (unknown origin) assessed as phosphorylation of ATF-2 by ELISA
[17] = biological target: MAP kinase-activated protein kinase 2 (Homo sapiens) (UniProt P49137); assay: Inhibition of MK2 (unknown origin) at 5.5 uM by Caliper Mobility Shift Assay
[18] = biological target: T2, MAP kinase-activated protein kinase 5 (Homo sapiens) (UniProt Q8IW41); assay: Inhibition of MAPKAPK5 (MK5) (unknown origin) at 5.5 uM by Caliper Mobility Shift Assay
T2 sequence (whole entry): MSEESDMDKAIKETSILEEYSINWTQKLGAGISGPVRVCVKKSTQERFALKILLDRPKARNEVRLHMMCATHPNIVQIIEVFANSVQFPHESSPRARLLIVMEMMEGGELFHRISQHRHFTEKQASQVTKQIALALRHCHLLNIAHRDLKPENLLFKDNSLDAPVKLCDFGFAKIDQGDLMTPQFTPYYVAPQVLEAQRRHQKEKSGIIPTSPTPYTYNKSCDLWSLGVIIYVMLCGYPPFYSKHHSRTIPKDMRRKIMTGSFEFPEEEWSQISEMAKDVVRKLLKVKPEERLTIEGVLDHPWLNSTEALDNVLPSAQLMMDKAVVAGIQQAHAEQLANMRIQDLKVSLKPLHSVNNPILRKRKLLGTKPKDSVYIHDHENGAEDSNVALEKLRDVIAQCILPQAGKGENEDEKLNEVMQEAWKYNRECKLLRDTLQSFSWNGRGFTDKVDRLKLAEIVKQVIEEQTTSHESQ

Chain of Fibroblast growth factor receptor 1 (Homo sapiens) (P11362 22-822 limits assumed): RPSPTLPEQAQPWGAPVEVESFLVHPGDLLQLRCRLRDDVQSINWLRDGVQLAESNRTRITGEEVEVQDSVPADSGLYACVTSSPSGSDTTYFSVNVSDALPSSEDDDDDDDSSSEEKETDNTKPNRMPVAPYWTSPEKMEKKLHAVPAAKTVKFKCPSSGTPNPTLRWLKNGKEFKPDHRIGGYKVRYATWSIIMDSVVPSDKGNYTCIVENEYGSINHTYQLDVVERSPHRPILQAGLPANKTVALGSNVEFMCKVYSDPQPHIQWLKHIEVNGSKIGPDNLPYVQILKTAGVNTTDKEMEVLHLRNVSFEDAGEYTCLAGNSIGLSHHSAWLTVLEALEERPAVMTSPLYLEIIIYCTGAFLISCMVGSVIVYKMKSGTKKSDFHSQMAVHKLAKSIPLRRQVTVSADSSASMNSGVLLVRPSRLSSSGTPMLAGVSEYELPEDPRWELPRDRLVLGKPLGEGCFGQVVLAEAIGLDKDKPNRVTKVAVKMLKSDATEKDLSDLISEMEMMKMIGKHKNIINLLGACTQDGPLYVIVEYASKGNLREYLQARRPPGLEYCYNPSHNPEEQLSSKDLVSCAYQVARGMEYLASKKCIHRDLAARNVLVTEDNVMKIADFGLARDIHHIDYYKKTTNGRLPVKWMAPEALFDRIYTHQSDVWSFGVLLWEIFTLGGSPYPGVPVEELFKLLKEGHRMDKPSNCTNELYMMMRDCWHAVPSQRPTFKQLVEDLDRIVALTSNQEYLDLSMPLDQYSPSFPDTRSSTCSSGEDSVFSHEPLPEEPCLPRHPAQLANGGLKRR
Chain of Mitogen-activated protein kinase 10 (P53779 whole entry): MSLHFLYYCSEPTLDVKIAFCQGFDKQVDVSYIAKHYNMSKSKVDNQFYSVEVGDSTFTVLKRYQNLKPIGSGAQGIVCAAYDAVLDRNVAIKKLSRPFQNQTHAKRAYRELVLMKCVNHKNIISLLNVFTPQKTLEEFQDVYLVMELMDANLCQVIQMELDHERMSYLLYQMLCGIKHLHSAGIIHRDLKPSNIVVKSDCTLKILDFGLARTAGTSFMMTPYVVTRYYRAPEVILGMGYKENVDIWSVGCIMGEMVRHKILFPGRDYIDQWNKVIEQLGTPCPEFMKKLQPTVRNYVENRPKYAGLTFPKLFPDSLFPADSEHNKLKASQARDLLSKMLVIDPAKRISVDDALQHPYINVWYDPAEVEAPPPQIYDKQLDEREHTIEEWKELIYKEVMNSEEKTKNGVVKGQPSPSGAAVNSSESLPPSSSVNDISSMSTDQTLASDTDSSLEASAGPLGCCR
Chain of Mitogen-activated protein kinase 9 (Homo sapiens) (P45984 whole entry, looked up): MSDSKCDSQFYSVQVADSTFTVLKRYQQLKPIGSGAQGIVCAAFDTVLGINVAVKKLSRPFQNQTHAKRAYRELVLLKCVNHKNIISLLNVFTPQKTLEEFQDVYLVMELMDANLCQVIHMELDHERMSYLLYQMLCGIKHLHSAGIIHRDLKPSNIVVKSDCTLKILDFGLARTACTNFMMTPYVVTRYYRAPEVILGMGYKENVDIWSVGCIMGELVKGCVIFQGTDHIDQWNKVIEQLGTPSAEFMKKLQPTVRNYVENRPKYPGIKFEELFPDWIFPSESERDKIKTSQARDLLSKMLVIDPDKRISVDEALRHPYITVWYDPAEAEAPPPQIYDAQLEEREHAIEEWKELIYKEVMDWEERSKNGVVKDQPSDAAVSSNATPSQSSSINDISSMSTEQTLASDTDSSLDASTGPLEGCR
Chain of Epidermal growth factor receptor (Homo sapiens) (P00533 whole entry): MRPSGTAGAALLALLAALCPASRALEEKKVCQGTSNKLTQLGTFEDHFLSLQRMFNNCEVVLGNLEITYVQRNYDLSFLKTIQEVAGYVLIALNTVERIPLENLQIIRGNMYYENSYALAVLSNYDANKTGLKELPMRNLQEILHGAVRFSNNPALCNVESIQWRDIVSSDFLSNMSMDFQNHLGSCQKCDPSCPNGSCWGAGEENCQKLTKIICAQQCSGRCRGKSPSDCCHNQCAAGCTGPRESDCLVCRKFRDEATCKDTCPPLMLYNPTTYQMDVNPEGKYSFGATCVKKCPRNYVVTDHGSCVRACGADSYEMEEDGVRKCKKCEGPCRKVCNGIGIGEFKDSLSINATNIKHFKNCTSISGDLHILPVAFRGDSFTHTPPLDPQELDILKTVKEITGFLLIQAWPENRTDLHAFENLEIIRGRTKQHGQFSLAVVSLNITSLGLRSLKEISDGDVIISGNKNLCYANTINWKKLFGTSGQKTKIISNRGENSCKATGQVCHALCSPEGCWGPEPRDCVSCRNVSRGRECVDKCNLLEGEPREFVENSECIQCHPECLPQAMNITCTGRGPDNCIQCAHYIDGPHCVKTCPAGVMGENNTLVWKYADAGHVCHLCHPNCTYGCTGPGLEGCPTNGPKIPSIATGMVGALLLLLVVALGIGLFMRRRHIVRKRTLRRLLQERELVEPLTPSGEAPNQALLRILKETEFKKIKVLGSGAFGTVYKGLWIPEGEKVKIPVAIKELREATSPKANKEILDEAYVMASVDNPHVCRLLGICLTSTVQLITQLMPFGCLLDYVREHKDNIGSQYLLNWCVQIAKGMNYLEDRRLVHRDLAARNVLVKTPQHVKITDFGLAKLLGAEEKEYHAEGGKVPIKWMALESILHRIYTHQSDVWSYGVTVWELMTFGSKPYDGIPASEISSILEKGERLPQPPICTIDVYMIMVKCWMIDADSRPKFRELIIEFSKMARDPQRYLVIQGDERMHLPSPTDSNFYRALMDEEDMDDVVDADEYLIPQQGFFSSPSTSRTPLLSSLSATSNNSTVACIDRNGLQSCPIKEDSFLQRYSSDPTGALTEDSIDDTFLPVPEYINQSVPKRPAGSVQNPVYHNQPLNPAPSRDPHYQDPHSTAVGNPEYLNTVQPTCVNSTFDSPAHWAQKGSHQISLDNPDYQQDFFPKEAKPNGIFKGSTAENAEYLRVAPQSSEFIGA
Chain of Tyrosine-protein kinase Lck (Homo sapiens) (P06239 2-509 limits assumed): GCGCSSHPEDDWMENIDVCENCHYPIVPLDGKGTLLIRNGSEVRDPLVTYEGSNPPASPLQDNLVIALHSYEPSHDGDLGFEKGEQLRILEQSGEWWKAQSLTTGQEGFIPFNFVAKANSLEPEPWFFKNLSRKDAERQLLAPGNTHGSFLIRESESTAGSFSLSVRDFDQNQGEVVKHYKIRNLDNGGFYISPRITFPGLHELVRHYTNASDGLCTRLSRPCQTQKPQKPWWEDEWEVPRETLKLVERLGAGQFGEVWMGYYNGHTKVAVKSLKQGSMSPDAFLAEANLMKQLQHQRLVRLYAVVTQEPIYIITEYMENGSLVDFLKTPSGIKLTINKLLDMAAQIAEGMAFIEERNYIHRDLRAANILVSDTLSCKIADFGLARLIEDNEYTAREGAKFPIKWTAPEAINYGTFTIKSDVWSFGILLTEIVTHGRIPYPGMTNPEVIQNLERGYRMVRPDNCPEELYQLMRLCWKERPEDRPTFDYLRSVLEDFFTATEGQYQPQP
Chain of Serine/threonine-protein kinase PAK 2 (Homo sapiens) (Q13177 whole entry): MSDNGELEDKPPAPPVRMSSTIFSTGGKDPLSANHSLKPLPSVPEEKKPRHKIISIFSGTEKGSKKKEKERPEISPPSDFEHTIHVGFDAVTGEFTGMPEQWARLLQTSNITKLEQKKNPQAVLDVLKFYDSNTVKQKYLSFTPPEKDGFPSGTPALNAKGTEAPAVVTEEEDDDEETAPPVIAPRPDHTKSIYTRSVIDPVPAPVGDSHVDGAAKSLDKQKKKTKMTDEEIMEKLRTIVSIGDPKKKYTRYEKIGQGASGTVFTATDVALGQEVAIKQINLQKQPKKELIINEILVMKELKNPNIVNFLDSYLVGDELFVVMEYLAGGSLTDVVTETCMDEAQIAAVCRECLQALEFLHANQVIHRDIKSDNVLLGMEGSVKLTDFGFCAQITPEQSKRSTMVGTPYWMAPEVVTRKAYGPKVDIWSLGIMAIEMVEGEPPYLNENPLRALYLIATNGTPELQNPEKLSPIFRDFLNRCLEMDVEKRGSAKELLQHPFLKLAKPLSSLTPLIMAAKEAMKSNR
Chain of Mitogen-activated protein kinase 8 (Homo sapiens) (P45983 whole entry): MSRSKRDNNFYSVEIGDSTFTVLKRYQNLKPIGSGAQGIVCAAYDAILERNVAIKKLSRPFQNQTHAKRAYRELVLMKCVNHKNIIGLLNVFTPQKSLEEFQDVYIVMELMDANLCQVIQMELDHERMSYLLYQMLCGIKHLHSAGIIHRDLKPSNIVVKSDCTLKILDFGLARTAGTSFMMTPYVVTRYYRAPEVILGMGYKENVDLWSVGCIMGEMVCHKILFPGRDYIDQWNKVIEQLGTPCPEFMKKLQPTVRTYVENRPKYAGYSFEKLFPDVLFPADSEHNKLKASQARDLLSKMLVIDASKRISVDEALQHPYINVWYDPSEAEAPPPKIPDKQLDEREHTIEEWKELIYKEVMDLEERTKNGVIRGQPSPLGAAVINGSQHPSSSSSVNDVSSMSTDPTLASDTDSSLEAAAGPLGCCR
Chain of MAP kinase-activated protein kinase 2 (Homo sapiens) (P49137 whole entry, looked up): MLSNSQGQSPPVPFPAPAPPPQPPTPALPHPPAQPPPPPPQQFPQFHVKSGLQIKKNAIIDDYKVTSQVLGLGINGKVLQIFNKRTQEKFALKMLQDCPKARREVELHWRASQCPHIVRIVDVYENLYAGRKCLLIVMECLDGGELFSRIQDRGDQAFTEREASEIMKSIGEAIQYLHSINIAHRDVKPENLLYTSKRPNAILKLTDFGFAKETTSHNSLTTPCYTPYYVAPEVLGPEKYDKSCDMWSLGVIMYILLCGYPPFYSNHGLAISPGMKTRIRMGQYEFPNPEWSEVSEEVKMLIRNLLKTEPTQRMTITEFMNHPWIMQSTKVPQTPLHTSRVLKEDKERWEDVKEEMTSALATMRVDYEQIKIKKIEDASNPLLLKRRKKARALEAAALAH

Structure (SMILES)	inhibition [1] [%]	inhibition [2] [%]	inhibition [3] [%]	inhibition [4] [%]	inhibition [5] [%]	inhibition [6] [%]	Ratio IC50 [7]	inhibition [8] [%]	inhibition [9] [%]	inhibition [10] [%]	inhibition [11] [%]	inhibition [12] [%]	inhibition [13] [%]	inhibition [14] [%]	inhibition [15] [%]	pIC50 [16]	inhibition [17] [%]	inhibition [18] [%]
CC(=O)Nc1cc(-c2c(-c3ccc(F)cc3)nc(S/C=C\C(=O)O)n2C2CC2)ccn1	< 50	< 50	< 50	< 50	< 50	< 50	0.7	< 50	< 50	< 50	< 50	< 50	< 50	< 50	< 50	7.09	< 50	< 50
COC(Cn1c(SC2CCC(C(=O)O)CC2O)nc(-c2ccc(F)cc2)c1-c1ccnc(NC(C)=O)c1)OC (stereo not given)	< 50	< 50	< 50	< 50	< 50	< 50	14.9	< 50	< 50	< 50	< 50	< 50	< 50	< 50	< 50	5.70	< 50	< 50
CC(=O)Nc1cc(-c2c(-c3ccc(F)cc3)nc(S/C=C\C(=O)O)n2CC2CCCO2)ccn1 (racemic)	< 50	< 50	< 50	< 50	< 50	< 50	0.2	< 50	< 50	< 50	< 50	< 50	< 50	< 50	< 50	7.46	< 50	< 50

Continued, values first:

inhibition [1] [%]	inhibition [2] [%]	inhibition [3] [%]	inhibition [4] [%]	inhibition [5] [%]	inhibition [6] [%]	Ratio IC50 [7]	inhibition [8] [%]	inhibition [9] [%]	inhibition [10] [%]	inhibition [11] [%]	inhibition [12] [%]	inhibition [13] [%]	inhibition [14] [%]	inhibition [15] [%]	pIC50 [16]	inhibition [17] [%]	inhibition [18] [%]	Structure (SMILES)
< 50	< 50	< 50	< 50	< 50	< 50	0.8	< 50	< 50	< 50	< 50	< 50	< 50	< 50	< 50	6.88	< 50	< 50	CC(=O)Nc1cc(-c2c(-c3ccc(F)cc3)nc(S/C=C\C(=O)O)n2C2CCCCC2)ccn1
< 50	< 50	< 50	< 50	< 50	< 50	4.3	< 50	< 50	< 50	< 50	< 50	< 50	< 50	< 50	5.82	< 50	< 50	CC(=O)Nc1cc(-c2c(-c3ccc(F)cc3)nc(Sc3cccc(I)n3)n2C2CCCCC2)ccn1
